The record followed here is US8722903B2, “Indazole derivatives for the treatment of HSP9O-induced diseases” (Merck Patent GmbH, priority 2006, dated 2014).

Some results are limits rather than exact numbers.

In the assay the target is T1, Recombinant human HSP90α (Homo sapiens, UniProt P07900).
T1 construct: host or cells: E. coli
The assay is described as follows: Radioligand filter binding test: competitive inhibition of [3H]17AAG binding to HSP90. As to conditions: [3H]17AAG 0.08 μM, HSP90 1.5 μg/assay, 22° C., 30 min. The method, then:
In the specific case, a radioligand filter binding test is used. The radioligand used here is tritium-labelled 17-allylaminogeldanamycin, [3H]17AAG, This filter binding test allows a targeted search for inhibitors which interfere with the ATP binding site.
Recombinant human HSP90α (E. coli expressed, 95% purity);
HEPES filter buffer (50 mM HEPES, pH 7.0, 5 mM MgCl2, BSA 0.01%) Multiscreen FB (1 μm) filter plate (Millipore, MAFBNOB 50).
The 96-well microtitre filter plates are firstly irrigated and coated with 0.1% of polyethylenimine.
The test is carried out under the following conditions:
Reaction temperature 22° C.
Reaction time: 30 min., shaking at 800 rpm
50 mM HEPES HCl, pH 7.0, 5 mM MgCl2, 0.01% (w/v) of BSA
At the end of the reaction, the supernatant in the filter plate is removed by suction with the aid of a vacuum manifold (Multiscreen Separation System, Millipore), and the filter is washed twice.
The filter plates are then measured in a beta counter (Microbeta, Wallac) with scintillator (Microscint 20, Packard).
“% of control” is determined from the “counts per minutes” values, and the IC-50 value of a compound is calculated therefrom.
As a reminder, the IC50 is the midpoint of a concentration-inhibition curve. On to `CCc1ccc(CN(C)C(=O)c2cc3c(Cc4ccccc4)n[nH]c3cc2O)cc1` [Compound A28, 5-[N-(4-Ethylbenzyl)-N-methylaminocarbonyl]-3-benzyl-6-hydroxy-1H-indazole], for which the 50% inhibitory concentration (IC50) is 10 to 1000 nM.
On to `CCCN(C)C(=O)c1cc2c(Cc3ccc(C)c(C)c3)n[nH]c2cc1O` [Compound A73, 5-(N-Propyl-N-methylaminocarbonyl)-3-(3,4-dimethylbenzyl)-6-hydroxy-1H-indazole], for which the IC50 was 1000 to 10000 nM.
For the molecule `CN(Cc1cccc(Br)c1)C(=O)c1cc2c(Cc3ccccc3)n[nH]c2cc1O` [Compound A26, 5-[N-(3-Bromobenzyl)-N-methylaminocarbonyl]-3-benzyl-6-hydroxy-1H-indazole], the IC50 lay in the range of 1000 to 10000 nM.
Next, `Cc1ccc(N(C)C(=O)c2cc3c(CC4CCCC4)n[nH]c3cc2O)cc1` [Compound A256, 5-[N-(4-Methylphenyl)-N-methylaminocarbonyl]-3-cyclopentylmethyl-6-hydroxy-1H-indazole]: 10 to 1000 nM; `CCCN(C)C(=O)c1cc2c(Cc3cc(C)cc(F)c3)n[nH]c2cc1O` [Compound A52, 5-(N-Propyl-N-methylaminocarbonyl)-3-(3-fluoro-5-methylbenzyl)-6-hydroxy-1H-indazole]: 1000 to 10000 nM; `COc1ccc(Cl)cc1CN(C)C(=O)c1cc2c(Cc3ccccc3)n[nH]c2cc1O` [Compound A31, 5-[N-(3-Chloro-6-methoxybenzyl)-N-methylaminocarbonyl]-3-benzyl-6-hydroxy-1H-indazole]: 1000 to 10000 nM.
Regarding `COc1ccc(C)cc1CN(C)C(=O)c1cc2c(Cc3ccccc3)n[nH]c2cc1O` [Compound A20, 5-[N-(2-Methoxy-5-methylbenzyl)-N-methylaminocarbonyl]-3-benzyl-6-hydroxy-1H-indazole], the IC50 was 1000 to 10000 nM.
For `CCCc1n[nH]c2cc(O)c(C(=O)N(C)c3ccc4c(c3)OCO4)cc12` [Compound A175, 5-[N-(Benzo-1,3-dioxol-5-yl)-N-methylaminocarbonyl]-3-propyl-6-hydroxy-1H-indazole], the concentration for half-maximal inhibition (IC50) was in the range of 10 to 1000 nM.
Consider `COCCN(C)C(=O)c1cc2c(Cc3ccccc3C)n[nH]c2cc1O` [Compound A45], for which the concentration for half-maximal inhibition (IC50) is above 10000 nM.
With `CN(Cc1cccc(C(F)(F)F)c1)C(=O)c1cc2c(Cc3ccccc3)n[nH]c2cc1O` [Compound A29, 5-[N-(3-Trifluoromethylbenzyl)-N-methylaminocarbonyl]-3-benzyl-6-hydroxy-1H-indazole], the half-inhibitory concentration (IC50) is 1000 to 10000 nM.
Consider `COc1cccc(CN(C)C(=O)c2cc3c(Cc4ccccc4)n[nH]c3cc2O)c1OC` [Compound A23, 5-[N-(2,3-Dimethoxybenzyl)-N-methylaminocarbonyl]-3-benzyl-6-hydroxy-1H-indazole], for which the IC50 was in the range of 10 to 1000 nM.
As to `Cc1cccc(Cc2n[nH]c3cc(O)c(C(=O)N(C)c4cccc(OC(F)(F)F)c4)cc23)c1` [Compound A154, 5-[N-(3-Trifluoromethoxyphenyl)-N-methylaminocarbonyl]-3-(3-methylbenzyl)-6-hydroxy-1H-indazole], the IC50 lay in the range of 10 to 1000 nM.
For the molecule `CCc1ccc(Cc2n[nH]c3cc(O)c(C(=O)N(C)Cc4ccccc4)cc23)cc1` [Compound A71, 5-(N-Benzyl-N-methylaminocarbonyl)-3-(4-ethylbenzyl)-6-hydroxy-1H-indazole], the concentration for half-maximal inhibition (IC50) was 1000 to 10000 nM.
Under `COc1cccc(N(C)C(=O)c2cc3c(CC4CCCC4)n[nH]c3cc2O)c1` [Compound A257, 5-[N-(3-Methoxyphenyl)-N-methylaminocarbonyl]-3-cyclopentylmethyl-6-hydroxy-1H-indazole] stands 10 to 1000 nM; under `Cc1cccc(Cc2n[nH]c3cc(O)c(C(=O)N(C)c4ccc(CN5CCOCC5)cc4)cc23)c1` [Compound A191, 5-[N-(4-Morpholin-4-ylmethylphenyl)-N-methylaminocarbonyl]-3-(3-methylbenzyl)-6-hydroxy-1H-indazole], 10 to 1000 nM; under `Cc1cccc(Cc2n[nH]c3cc(O)c(C(=O)N(C)Cc4ccc5c(c4)OCCO5)cc23)c1` [Compound A101, 5-[N-(2,3-Dihydrobenzo-1,4-dioxin-6-ylmethyl)-N-methylaminocarbonyl]-3-(3-methylbenzyl)-6-hydroxy-1H-indazole], 10 to 1000 nM.
Next, `CN(Cc1ccccc1)C(=O)c1cc2c(Cc3cccc(Cl)c3)n[nH]c2cc1O` [Compound A40, 5-(N-Benzyl-N-methylaminocarbonyl)-3-(3-chlorobenzyl)-6-hydroxy-1H-indazole]: 10 to 1000 nM; `CCCCN(C)C(=O)c1cc2c(Cc3ccc(C)cc3)n[nH]c2cc1O` [Compound A64, 5-(N-Butyl-N-methylaminocarbonyl)-3-(4-methylbenzyl)-6-hydroxy-1H-indazole]: 1000 to 10000 nM.
In the case of `CN(Cc1ccccc1)C(=O)c1cc2c(Cc3ccccc3)n[nH]c2cc1O` [Compound A6, 5-(N-Benzyl-N-methylaminocarbonyl)-3-benzyl-6-hydroxy-1H-indazole], the IC50 was in the range of 10 to 1000 nM.
In the case of `COCCN(C)C(=O)c1cc2c(Cc3cccc(Cl)c3)n[nH]c2cc1O` [Compound A41, 5-[N-(2-Methoxyethyl)-N-methylaminocarbonyl]-3-(3-chlorobenzyl)-6-hydroxy-1H-indazole], the IC50 is 1000 to 10000 nM.
As for `CN(Cc1cccc(Cl)c1)C(=O)c1cc2c(Cc3ccccc3)n[nH]c2cc1O` [Compound A10, 5-[N-(3-Chlorobenzyl)-N-methylaminocarbonyl]-3-benzyl-6-hydroxy-1H-indazole], the IC50 fell in the range of 1000 to 10000 nM.
For `CN(Cc1ccccc1)C(=O)c1cc2c(Cc3ccccc3Cl)n[nH]c2cc1O` [Compound A32, 5-(N-Benzyl-N-methylaminocarbonyl)-3-(2-chlorobenzyl)-6-hydroxy-1H-indazole], the IC50 was in the range of 1000 to 10000 nM.
With `COc1ccc(N(C)C(=O)c2cc3c(Cc4cccc(C)c4)n[nH]c3cc2O)cc1OC` [Compound A145, 5-[N-(3,4-Dimethoxyphenyl)-N-methylaminocarbonyl]-3-(3-methylbenzyl)-6-hydroxy-1H-indazole], the IC50 is 10 to 1000 nM.
Under `CC(=O)N1CCc2cc(N(C)C(=O)c3cc4c(Cc5cccc(C)c5)n[nH]c4cc3O)ccc21` [Compound A157, 5-[N-(1-Acetyl-2,3-dihydro-1H-indol-5-yl)-N-methylaminocarbonyl]-3-(3-methylbenzyl)-6-hydroxy-1H-indazole] stands 10 to 1000 nM; under `COc1ccc(N(C)C(=O)c2cc3c(Cc4cccc(OC)c4)n[nH]c3cc2O)cc1` [Compound A160, 5-[N-(4-Methoxyphenyl)-N-methylaminocarbonyl]-3-(3-methoxybenzyl)-6-hydroxy-1H-indazole], 10 to 1000 nM.
Under `COCCN(C)C(=O)c1cc2c(Cc3ccccc3Cl)n[nH]c2cc1O` [Compound A34, 5-[N-(2-Methoxyethyl)-N-methylaminocarbonyl]-3-(2-chlorobenzyl)-6-hydroxy-1H-indazole] stands above 10000 nM; under `COCCN(C)C(=O)c1cc2c(Cc3cccc(C)c3)n[nH]c2cc1O` [Compound A37, 5-[N-(2-Methoxyethyl)-N-methylaminocarbonyl]-3-(3-methylbenzyl)-6-hydroxy-1H-indazole], 1000 to 10000 nM.
For “5-[N-(3-Methoxybenzyl)-N-methylaminocarbonyl]-3-benzyl-6-hydroxy-1H-indazole [Compound A27]”, the IC50 is 10 to 1000 nM.
Under `COc1cc(N(C)C(=O)c2cc3c(Cc4cccc(C)c4)n[nH]c3cc2O)ccc1N1CCN(C)CC1` [Compound A190, 5-{N-[3-Methoxy-4-(4-methylpiperazin-1-yl)phenyl]-N-methylaminocarbonyl}-3-(3-methylbenzyl)-6-hydroxy-1H-indazole] stands 10 to 1000 nM; under `CCCCN(C)C(=O)c1cc2c(Cc3cccc(Cl)c3)n[nH]c2cc1O` [Compound A39, 5-(N-Butyl-N-methylaminocarbonyl)-3-(3-chlorobenzyl)-6-hydroxy-1H-indazole], 10 to 1000 nM; under `CCCN(C)C(=O)c1cc2c(Cc3cccc(Cl)c3)n[nH]c2cc1O` [Compound A42, 5-(N-Propyl-N-methylaminocarbonyl)-3-(3-chlorobenzyl)-6-hydroxy-1H-indazole], 10 to 1000 nM.
As for `COCCN(C)C(=O)c1cc2c(Cc3ccccc3)n[nH]c2cc1O` [Compound A7, 5-[N-(2-Methoxyethyl)-N-methylaminocarbonyl]-3-benzyl-6-hydroxy-1H-indazole], the IC50 lay within 1000 to 10000 nM.
In the case of `COc1cccc(Cc2n[nH]c3cc(O)c(C(=O)N(C)c4ccc(CNS(C)(=O)=O)cc4)cc23)c1` [Compound A162, 5-[N-(4-Methylsulfonylaminomethylphenyl)-N-methylaminocarbonyl]-3-(3-methoxybenzyl)-6-hydroxy-1H-indazole], the IC50 fell in the range of 10 to 1000 nM.
Under `CCCc1n[nH]c2cc(O)c(C(=O)N(C)Cc3ccccc3)cc12` [Compound A178, 5-(N-Benzyl-N-methylaminocarbonyl)-3-propyl-6-hydroxy-1H-indazole] stands 10 to 1000 nM; under `Cc1ccccc1Cc1n[nH]c2cc(O)c(C(=O)N(C)Cc3ccccc3)cc12` [Compound A44, 5-(N-Benzyl-N-methylaminocarbonyl)-3-(2-methylbenzyl)-6-hydroxy-1H-indazole], 1000 to 10000 nM; under `Cc1cccc(Cc2n[nH]c3cc(O)c(C(=O)N(C)C4CCCCC4)cc23)c1` [Compound A195, 5-(N-Cyclohexyl-N-methylaminocarbonyl)-3-(3-methylbenzyl)-6-hydroxy-1H-indazole], 1000 to 10000 nM.
